Test results published in US20260159474A1, “Aminoindane Compounds and Compositions and Methods of Their Therapeutic Use” (Solvonis Therapeutics Ireland Holdings Limited, priority 2021, published 2026).

Key:
[1] = target: T1, human 5-HT2A receptor (Homo sapiens, UniProt P28223); experiment: Intracellular calcium response (FLIPR) in CHO cells expressing human 5-HT2A receptor; type: cell-based; conditions: n=2; for 5-HT2A agonist mode pEC50: intracellular calcium; for 5-HT2A antagonist mode pIC50: inhibition of serotonin EC80 response
T1 construct: expressed in transfected cells; host or cells: CHO
Procedure: Methods: Selectivity for the 5-HT2A receptor was assessed by measuring [ICa2+]i in a CHO recombinant cell line stably expressing the human 5-HT2A receptor, using a Fluorometric Imaging Plate Reader (FLIPR TETRA, Molecular Devices).
The day before the experiment, CHO cells were seeded into black-wells clear-bottom 384-well plates at a density of 10,000 cells per well, in F-12K Medium (ThermoFisher #21127) supplemented with 10% dialyzed fetal bovine serum, and grown overnight at 37° C., 5% C02.
On the day of the experiment, the medium was replaced with assay buffer (20 miM HEPES, 145 mM NaCl, 5 mM KCl, 5.5 mM glucose, 1 mM MgCl2, 2 mM CaCl2 and 2.5 mM probenecid, pH 7.4) containing the cytoplasmic Ca2+ indicator Fluo-4 AM at 2 μM and 0.02% Pluronic F-127. After an incubation of 45-60 minutes at 37° C., 0% C02, cells were washed by Microplate Washer (BIOTEK) 384 with assay buffer, and the plate was transferred to the FLIPR TETRA. Then, intracellular fluorescence was measured in real time by FLIPR TETRA (excitation wavelength at 470-495 nm, emission wavelength at 515-575 nm), using a dual addition protocol.
In the first addition, test compounds (11 points of 1:4 serial dilution, 0.5% DMSO final) were added to the cell plate to evaluate their effect on intracellular calcium levels. In the event of a response, the signal was elaborated for the determination of pEC50/EC50 values.

[2] = Plasma protein binding by equilibrium dialysis, rat plasma; type: in vitro ADME; conditions: for fraction unbound at 5 h, 0.5 μM: male, Sprague Dawley, rat, plasma, pH 7.4, read-out: Rat Plasma (Fu %); for Rat Plasma (Fu %): fraction unbound, 0.5 μM
Procedure: Methods: Plasma protein binding and blood tissue binding of test items (0.5 μM) was determined using biological samples from male Sprague Dawley (SD) rats and humans. […] Dexamethasone was used as a control compound for lung tissue binding. Various biological samples were spiked with test compounds according to the methods that follow.
Preparation of plasma or blood samples: An appropriate amount of test compound was dissolved in DMSO to yield a 10 mM solution. Further dilutions, to obtain 50 μM working solutions (WS), were then prepared using 50% acetonitrile in Milli-Q water. These 100×WS were used to spike plasma or blood to obtain a final concentration of 0.5 μM. From this initial spiking solution, control samples (n=3), referred to as T=0, were immediately extracted and used to calculate the recovery of the test item.
An equilibrium dialysis method was performed to determine protein binding in the various biological samples described herein. Materials were prepared and methods were in accordance with the following procedures.
Membranes were prepared for use in the equilibrium dialysis experiment. by soaking in deionized water for at least 60 minutes. After this period, 20% of pure ethanol was added, and the membranes were left in this solution for at least 20 minutes. The membranes were then rinsed in Milli-Q water prior to use.
To initiate the experiment, 150 μL of test item-free buffer (isotonic phosphate buffer for plasma and blood, artificial CSF buffer for brain or HBSS buffer for lung) was dispensed on one half-well of a 96-well dialyzer apparatus (HTDialysis LLC), and 150 μL of spiked matrix (plasma, blood, brain or lung) was loaded on the other half-well. Alternative volumes may be used according to the operating instructions of HTDialysis.
Dialysis buffer was prepared by dissolving Na2HPO4 8.69 g, KH2PO4 1.90 g, and NaCl 4.11 g in […] of MilliQ water, and adjusting the pH to 7.4 with H3PO4. At the end of the equilibration period (device is sealed and incubated under shaking for 5 hours at 37° C.), 50 μL of dialysed matrix will be added to 50 μL of corresponding test item free dialysed buffer, and vice versa for buffer, such that the volume of buffer to matrix will be the same. Samples were extracted by protein precipitation with 300 μL of acetonitrile containing rolipram (for positive ionization mode) or diclofenac (for negative ionization mode) as internal standard and centrifuged for 10 minutes at 2800 rpm. […]
Samples were then injected onto an HPLC MS/MS or UPLC MS/MS system. In order to control the integrity of the membrane after the dialysis process, the presence of protein was assessed in the buffer compartment. […]
Samples were analyzed in a LC-MS/MS system using an analytical method to monitor the compound to internal standard peak area ratios as representative of the compound concentrations. Alternatively, samples were analyzed by RapidFire.
Protein binding in plasma, blood, brain, and lung tissue samples were determined with the following formula: Afu=Buffer/x, wherein “x” may be plasma, blood, brain, or lung, and “Afu” is the apparent fraction unbound, and the other variables refer to the analyte/internal standard ratio determined in their specific compartment (buffer, plasma, blood, brain homogenate, and lung homogenate); Fucr-(1/D)/[(1/Afu)-1+(1/D)], wherein fucr is the fraction unbound corrected, D is the matrix dilution factor (D=1 for plasma, 2 for blood, 3 for brain, 7 for lung). % Binding=(1−fucr)×100 and % Unbound=100—% Bound. […]

T1 sequence (P28223 whole entry): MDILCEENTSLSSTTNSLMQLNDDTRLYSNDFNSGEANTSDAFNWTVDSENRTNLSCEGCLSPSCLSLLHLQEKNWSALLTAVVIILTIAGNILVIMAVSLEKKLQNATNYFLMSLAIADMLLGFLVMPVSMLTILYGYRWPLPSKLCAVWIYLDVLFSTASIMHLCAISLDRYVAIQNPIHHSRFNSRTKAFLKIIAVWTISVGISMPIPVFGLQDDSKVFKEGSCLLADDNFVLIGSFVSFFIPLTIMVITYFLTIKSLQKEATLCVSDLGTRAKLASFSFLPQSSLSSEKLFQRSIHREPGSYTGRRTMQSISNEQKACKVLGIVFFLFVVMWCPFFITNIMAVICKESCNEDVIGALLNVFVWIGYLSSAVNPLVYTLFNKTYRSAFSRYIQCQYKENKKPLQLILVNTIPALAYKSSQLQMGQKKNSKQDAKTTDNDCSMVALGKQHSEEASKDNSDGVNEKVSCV

Structure (SMILES)	5-HT2A agonist mode pEC50 [1]	5-HT2A antagonist mode pIC50 [1]	fraction unbound at 5 h, 0.5 μM [2]	Rat Plasma (Fu %) [2]
COc1ccc2c(c1)CC(N)C2 (centres unmarked) [MEAI, 5-methoxy-2-aminoindane]	comparable to MDMA	comparable to MDMA	> 0.5	
CNC(C)Cc1ccc2c(c1)OCO2 (centres unmarked) [MDMA]	less than 4.3	less than 4.3		>50%
COC(=O)c1cc2c(cc1OC)CC(N)C2 (centres unmarked) [CMP-401]				Low
COc1cc2c(cc1C)CC(N)C2 (centres unmarked) [MMAI, 5-methoxy-6-methyl-2-aminoindane]			> 0.5	
COC(=O)c1ccc2c(c1)CC(N)C2 (centres unmarked) [CMP-405, 2-aminoindane-5-methylcarboxylate]	comparable to MDMA	comparable to MDMA		high binding in plasma specimens and Low
